For one test, the system named is Enterococcus faecalis. The experiment in a line: Antimicrobial activity against Enterococcus faecalis ATCC 14506 assessed as growth inhibition after 24 hr by broth microdilution method. Conditions: ATCC 14506, 24 h. Format: functional. On the technique in general: Broth dilution looks for growth in wells or tubes with falling amounts of substance.
For a further test, the system named is BGC-823. The test is described as follows: Anticancer activity against Homo sapiens (human) BGC823 cells assessed as inhibition of cell viability after 96 hr by MTT assay. Conditions: BGC-823, 96 h. The class given is functional, cell-based. Background: Formazan colour is commonly taken as a measure of viable cells.
In another test the test system is Candida tropicalis. The experiment in a line: Antimicrobial activity against Candida tropicalis ATCC 1369 assessed as growth inhibition after 24 hr by broth microdilution method. The following applies: ATCC 1369, 24 h. The class given is functional.
The next test relates to MCF7. The test is described as follows: Anticancer activity against Homo sapiens (human) MCF7 cells assessed as inhibition of cell viability after 96 hr by MTT assay. The class given is functional, cell-based. Conditions: MCF7, 96 h.
In a further test the test system is Escherichia coli. The test is described as follows: Antimicrobial activity against Escherichia coli ATCC 10536 assessed as growth inhibition after 24 hr by broth microdilution method. The following applies: ATCC 10536, 24 h. The class given is functional.
For another test, the system named is Staphylococcus aureus. The test is described as follows: Antimicrobial activity against Staphylococcus aureus ATCC 11632 assessed as growth inhibition after 24 hr by broth microdilution method. Format: functional. Conditions: ATCC 11632, 24 h.
For the next test, the system named is Aspergillus niger. The test is described as follows: Antimicrobial activity against Aspergillus niger ATCC 6275 assessed as growth inhibition after 24 hr by broth microdilution method. The class given is functional. The following applies: ATCC 6275, 24 h.
In a further test the test system is Klebsiella pneumoniae. The experiment in a line: Antimicrobial activity against Klebsiella pneumoniae ATCC 10031 assessed as growth inhibition after 24 hr by broth microdilution method. Format: functional. Conditions: ATCC 10031, 24 h.
In the next test the test system is Pseudomonas aeruginosa. The experiment in a line: Antimicrobial activity against Pseudomonas aeruginosa ATCC 10145 assessed as growth inhibition after 24 hr by broth microdilution method. The class given is functional. Conditions: ATCC 10145, 24 h.
Another test concerns A549. The test is described as follows: Anticancer activity against Homo sapiens (human) A549 cells assessed as inhibition of cell viability after 96 hr by MTT assay. Format: functional, cell-based. The following applies: A549, 96 h.
The test system of another test is Saccharomyces cerevisiae. The test is described as follows: Antimicrobial activity against Saccharomyces cerevisiae ATCC 9763 assessed as growth inhibition after 24 hr by broth microdilution method. The class given is functional. The following applies: ATCC 9763, 24 h.
The test system of another test is A2780. The test is described as follows: Anticancer activity against Homo sapiens (human) A2780 cells assessed as inhibition of cell viability after 96 hr by MTT assay. Format: functional, cell-based. Conditions: A2780, 96 h.
For the next test, the system named is HeLa. The test is described as follows: Anticancer activity against Homo sapiens (human) HeLa cells assessed as inhibition of cell viability after 96 hr by MTT assay. Format: functional, cell-based.
For a further test, the system named is Bacillus subtilis. The experiment in a line: Antimicrobial activity against Bacillus subtilis ATCC 60511 assessed as growth inhibition after 24 hr by broth microdilution method. The class given is functional. The following applies: ATCC 60511, 24 h.

≈ marks a conversion by molar mass, not a printed value.

The term MIC denotes the lowest concentration found to suppress growth. In general, IC50 refers to the concentration at which inhibition is half-maximal. For the compound `Cc1ccc(/C=N/NC(=O)Cc2csc(N3N=C(c4ccccc4)CC3c3c(F)cccc3F)n2)cc1` (stereo not drawn), the MIC with Enterococcus faecalis is 16 µg/mL (≈ 31 µM); in the test with Candida tropicalis, 8 µg/mL (≈ 15.5 µM); with Escherichia coli, 125 µg/mL (≈ 242 µM); with Staphylococcus aureus it was 125 µg/mL (≈ 242 µM); with Aspergillus niger it was 16 µg/mL (≈ 31 µM); with Klebsiella pneumoniae, 125 µg/mL (≈ 242 µM). Besides, the MIC in the test with Pseudomonas aeruginosa came out at 16 µg/mL (≈ 31 µM); in the test with Saccharomyces cerevisiae it was 8 µg/mL (≈ 15.5 µM); with Bacillus subtilis it was 16 µg/mL (≈ 31 µM). Further, the IC50 was determined as 1450 nM with BGC-823; 1650 nM in the test on MCF7; 1500 nM with A549; 2620 nM with A2780; 5910 nM in the test with HeLa.

Take `O=C1CSC(N2N=C(c3ccccc3)CC2c2c(F)cccc2F)=N1` (stereo not drawn): the MIC turned out to be 16 µg/mL (≈ 44.8 µM) in the test with Enterococcus faecalis; 31.2 µg/mL (≈ 87.4 µM) with Candida tropicalis; 62.5 µg/mL (≈ 175 µM) in the test with Escherichia coli; 16 µg/mL (≈ 44.8 µM) with Staphylococcus aureus; 31.2 µg/mL (≈ 87.4 µM) in the test with Aspergillus niger; 16 µg/mL (≈ 44.8 µM) with Klebsiella pneumoniae. Besides, the results for the MIC with Pseudomonas aeruginosa, in the test on Saccharomyces cerevisiae and in the test with Bacillus subtilis were 16 µg/mL (≈ 44.8 µM), 31.2 µg/mL (≈ 87.4 µM) and 31.2 µg/mL (≈ 87.4 µM), respectively. Moreover, the IC50 with BGC-823 worked out at 2350 nM; in the test on MCF7, 1940 nM; in the test on A549, 4580 nM; in the test on A2780 it was 5320 nM; with HeLa, 6450 nM.

As for `Fc1cccc(F)c1C1CC(c2ccccc2)=NN1C1=NC(c2ccc(Cl)cc2Cl)S1` (stereo not drawn), the MIC in the test on Enterococcus faecalis turned out to be 125 µg/mL (≈ 264 µM); with Candida tropicalis it was 62.5 µg/mL (≈ 132 µM); with Escherichia coli it was 16 µg/mL (≈ 33.7 µM); in the test on Staphylococcus aureus it was 125 µg/mL (≈ 264 µM); with Aspergillus niger, 8 µg/mL (≈ 16.9 µM); in the test with Klebsiella pneumoniae, 31.2 µg/mL (≈ 65.9 µM). For the same compound, the minimum inhibitory concentration (MIC) is 125 µg/mL (≈ 264 µM) with Pseudomonas aeruginosa, 16 µg/mL (≈ 33.7 µM) in the test on Saccharomyces cerevisiae and 31.2 µg/mL (≈ 65.9 µM) in the test with Bacillus subtilis. Also, the IC50 in the test on BGC-823 is 3310 nM; in the test with MCF7 it was 1890 nM; in the test with A549, 3250 nM; in the test with A2780 it was 4510 nM; with HeLa it was 6130 nM.

On to `Fc1cccc(F)c1C1CC(c2ccccc2)=NN1C1=NC(c2ccccc2)S1` (stereo not drawn), for which the MIC in the test on Enterococcus faecalis is 8 µg/mL (≈ 19.7 µM); in the test on Candida tropicalis it was 31.2 µg/mL (≈ 77.1 µM); in the test with Escherichia coli it was 16 µg/mL (≈ 39.5 µM); with Staphylococcus aureus it was 16 µg/mL (≈ 39.5 µM); in the test with Aspergillus niger, 125 µg/mL (≈ 308 µM); in the test on Klebsiella pneumoniae, 16 µg/mL (≈ 39.5 µM). The results for the MIC in the test with Pseudomonas aeruginosa, in the test with Saccharomyces cerevisiae and with Bacillus subtilis were 62.5 µg/mL (≈ 154 µM), 62.5 µg/mL (≈ 154 µM) and 31.2 µg/mL (≈ 77.1 µM), respectively. Besides, the IC50 in the test with BGC-823 came out at 1970 nM; with MCF7, 1720 nM; with A549 it was 2110 nM; in the test with A2780 it was 4330 nM; in the test on HeLa it was 5710 nM.

On to `NC(=S)N1N=C(c2ccccc2)CC1c1c(F)cccc1F` (stereo not drawn), for which the MIC in the test on Enterococcus faecalis is 31.2 µg/mL (≈ 98.5 µM); in the test on Candida tropicalis it was 31.2 µg/mL (≈ 98.5 µM); in the test on Escherichia coli it was 62.5 µg/mL (≈ 197 µM); with Staphylococcus aureus it was 31.2 µg/mL (≈ 98.5 µM); in the test with Aspergillus niger it was 62.5 µg/mL (≈ 197 µM); in the test with Klebsiella pneumoniae, 62.5 µg/mL (≈ 197 µM). In addition, the figures for the MIC in the test with Pseudomonas aeruginosa, in the test on Saccharomyces cerevisiae and with Bacillus subtilis were 31.2 µg/mL (≈ 98.5 µM), 125 µg/mL (≈ 394 µM) and 8 µg/mL (≈ 25.2 µM), respectively. Further, the concentration for half-maximal inhibition (IC50) in the test with BGC-823 came to 1840 nM; with MCF7, 2150 nM; in the test with A549, 2550 nM; with A2780, 3620 nM; with HeLa, 6250 nM.

`CCOC(=O)Cc1csc(N2N=C(c3ccccc3)CC2c2c(F)cccc2F)n1` (stereo not drawn): the MIC was 31.2 µg/mL (≈ 73.1 µM) with Enterococcus faecalis; 31.2 µg/mL (≈ 73.1 µM) in the test on Candida tropicalis; 8 µg/mL (≈ 18.7 µM) in the test on Escherichia coli; 16 µg/mL (≈ 37.4 µM) with Staphylococcus aureus; 62.5 µg/mL (≈ 146 µM) in the test on Aspergillus niger; 8 µg/mL (≈ 18.7 µM) in the test on Klebsiella pneumoniae. The results for the MIC in the test on Pseudomonas aeruginosa, in the test with Saccharomyces cerevisiae and in the test with Bacillus subtilis were 8 µg/mL (≈ 18.7 µM), 62.5 µg/mL (≈ 146 µM) and 31.2 µg/mL (≈ 73.1 µM), respectively. In addition, the IC50 in the test with BGC-823 turned out to be 3850 nM; in the test with MCF7 it was 2110 nM; in the test on A549 it was 4180 nM; with A2780, 3910 nM; with HeLa, 6310 nM.

On to `O=C(Cc1csc(N2N=C(c3ccccc3)CC2c2c(F)cccc2F)n1)N/N=C/c1c(F)cccc1F` (stereo not drawn), for which the MIC with Enterococcus faecalis was determined as 16 µg/mL (≈ 29.8 µM); in the test with Candida tropicalis, 4 µg/mL (≈ 7.44 µM); with Escherichia coli, 4 µg/mL (≈ 7.44 µM); in the test on Staphylococcus aureus it was 16 µg/mL (≈ 29.8 µM); with Aspergillus niger it was 16 µg/mL (≈ 29.8 µM); in the test on Klebsiella pneumoniae, 8 µg/mL (≈ 14.9 µM). The values for the minimum inhibitory concentration (MIC) in the test on Pseudomonas aeruginosa, in the test on Saccharomyces cerevisiae and with Bacillus subtilis were 8 µg/mL (≈ 14.9 µM), 16 µg/mL (≈ 29.8 µM) and 62.5 µg/mL (≈ 116 µM), respectively. In addition, the IC50 in the test with BGC-823 amounted to 1320 nM; with MCF7, 1200 nM; with A549, 960 nM; in the test with A2780, 2540 nM; with HeLa, 4230 nM.

The values above are taken from ChEMBL document CHEMBL3046035, “Synthesis and biological evaluation of novel 4,5-dihydropyrazole derivatives as potent anticancer and antimicrobial agents” (Med Chem Res, 2013).
